Assay results published in patent publication US5821231A, “CS-1 peptidomimetics, compositions and methods of using same” (Cytel Corporation, priority 1995, dated 1998).
Square brackets hold non-standard residues; d marks the D form. Peptide text beside a SMILES is read from it. * marks the point of attachment. NHOctadecyl = CCCCCCCCCCCCCCCCCCN*; Cya = N[C@@H](CS(=O)(=O)O)C(=O)O; NMeF = CN[C@@H](Cc1ccccc1)C(=O)O; hPhe = N[C@@H](CCc1ccccc1)C(=O)O; Cha = N[C@@H](CC1CCCCC1)C(=O)O; Phg = N[C@H](C(=O)O)c1ccccc1; X8 = CCCCCCCCCCCCCCCCCCO*; Piperidide = C1CCN(*)CC1; X7 = O=C(CO*)OCc1ccccc1; PhAc = O=C(Cc1ccccc1)*; ODecyl = CCCCCCCCCCO*; X1 = CCCCCCCCCCCCCCO*; X4 = CCN(CC)C(=O)CO*; Bz = O=C(c1ccccc1)*; OBn = c1ccc(CO*)cc1; X5 = CCCCCCCCCCCCO*; Ahx = NCCCCCC(=O)O; X6 = O=C(O)CO*

Target: VLA-4 (Homo sapiens, UniProt P05556+P13612)
Sequence (P13612 34-1032): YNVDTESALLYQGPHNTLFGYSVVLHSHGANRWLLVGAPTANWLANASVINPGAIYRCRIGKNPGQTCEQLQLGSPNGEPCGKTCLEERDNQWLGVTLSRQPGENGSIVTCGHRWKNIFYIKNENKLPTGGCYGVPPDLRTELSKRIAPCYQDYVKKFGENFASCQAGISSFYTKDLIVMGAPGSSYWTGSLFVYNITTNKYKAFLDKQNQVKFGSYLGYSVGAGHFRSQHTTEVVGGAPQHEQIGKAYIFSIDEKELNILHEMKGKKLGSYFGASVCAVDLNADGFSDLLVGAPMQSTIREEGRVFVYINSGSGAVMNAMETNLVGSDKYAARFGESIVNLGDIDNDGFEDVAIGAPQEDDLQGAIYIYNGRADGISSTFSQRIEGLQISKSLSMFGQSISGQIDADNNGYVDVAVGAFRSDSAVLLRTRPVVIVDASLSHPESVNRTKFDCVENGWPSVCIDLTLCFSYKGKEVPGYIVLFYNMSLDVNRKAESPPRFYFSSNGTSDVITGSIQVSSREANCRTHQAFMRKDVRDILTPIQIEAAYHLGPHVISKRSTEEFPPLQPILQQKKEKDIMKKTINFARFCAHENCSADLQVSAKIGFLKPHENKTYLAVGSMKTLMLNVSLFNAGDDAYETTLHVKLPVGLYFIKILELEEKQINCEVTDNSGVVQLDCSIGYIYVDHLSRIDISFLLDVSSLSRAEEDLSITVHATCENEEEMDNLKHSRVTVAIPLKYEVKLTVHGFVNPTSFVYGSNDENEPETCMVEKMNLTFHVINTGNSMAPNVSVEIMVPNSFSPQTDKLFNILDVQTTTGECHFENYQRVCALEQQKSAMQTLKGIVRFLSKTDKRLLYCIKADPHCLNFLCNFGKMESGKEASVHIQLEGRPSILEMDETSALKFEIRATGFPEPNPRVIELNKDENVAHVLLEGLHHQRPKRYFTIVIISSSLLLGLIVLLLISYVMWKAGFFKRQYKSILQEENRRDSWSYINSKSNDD
Sequence (P05556 21-798): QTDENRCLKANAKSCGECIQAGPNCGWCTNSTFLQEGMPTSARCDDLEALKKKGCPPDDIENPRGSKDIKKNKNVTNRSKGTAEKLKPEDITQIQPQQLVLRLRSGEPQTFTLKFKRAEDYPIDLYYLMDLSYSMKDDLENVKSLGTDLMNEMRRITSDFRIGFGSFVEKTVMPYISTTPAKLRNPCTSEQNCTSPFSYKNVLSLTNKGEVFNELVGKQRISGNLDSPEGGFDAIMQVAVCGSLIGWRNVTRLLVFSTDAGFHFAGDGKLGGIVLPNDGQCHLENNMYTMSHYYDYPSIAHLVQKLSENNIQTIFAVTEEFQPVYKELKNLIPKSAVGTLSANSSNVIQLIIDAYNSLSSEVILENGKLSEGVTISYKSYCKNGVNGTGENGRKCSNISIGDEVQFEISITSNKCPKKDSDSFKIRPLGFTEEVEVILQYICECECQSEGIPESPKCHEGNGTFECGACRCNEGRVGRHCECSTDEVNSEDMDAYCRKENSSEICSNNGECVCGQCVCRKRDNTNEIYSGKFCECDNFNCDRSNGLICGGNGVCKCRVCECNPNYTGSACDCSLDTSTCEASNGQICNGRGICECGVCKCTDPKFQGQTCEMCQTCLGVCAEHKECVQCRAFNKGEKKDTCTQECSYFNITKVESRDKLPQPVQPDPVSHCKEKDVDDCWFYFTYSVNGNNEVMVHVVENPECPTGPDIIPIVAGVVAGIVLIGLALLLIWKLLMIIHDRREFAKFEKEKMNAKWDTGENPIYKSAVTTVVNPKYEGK
Assay: In vitro binding assay: 51Cr-labeled Jurkat cells to solid phase-bound CS-1 compound (SEQ ID NO:1)
Type: cell-based
Parameters: inflammatory cells that contain the VLA-4 receptor [Jurkat cells; host or cells: Jurkat cells (human T lymphoblastic line)
Settings: not given
Protocol: Binding inhibition is measured here as a concentration of compound that inhibits one-half the binding between a standard number of Jurkat cells and a standard amount of CS-1 compound bound to the surface of a microtiter plate well. Those concentrations are conveniently expressed as IC50 values, smaller numbers indicating a lower concentration required to inhibit 50 percent binding and therefore greater potency. Further specifics of this assay are provided hereinafter.
Jurkat cells (ATCC TIB 152), a human T lymphoblastic line, labeled with ^51 chromium were used to assay in vitro binding inhibition provided by various compounds discussed herein.
The plates were prepared as follows: The 25-mer CS-1 compound (SEQ ID NO:1) dissolved at 0.5-1 μg/ml in a buffer of 0.1M NaHCO3 at pH 9.5 that also contained 10 μg/ml of bovine serum albumin (BSA) or a conjugate of the CS-1 compound linked to ovalbumin (CS-1-OVA) dissolved at 1-2.5 μg/ml in the same buffer was used as the substrate. Each well of the microtiter plates was coated with 50 μl of substrate or buffer alone for controls. The wells were permitted to dry out completely and were then rinsed twice with PBS at pH 7.4. Non-specific binding sites of each well were then blocked using 200 μl per well of RPMI/1 percent BSA for two hours at room temperature.
Jurkat cells (3-5×10^6 cells) were placed into a 15 ml Falcon™ round-bottom tube with a cap. The tube was centrifuged, and the extra medium was then removed.
Two hundred microliters of a ^51 Cr labeling solution were added to the centrifuged cells and maintained in contact with the cells for 90-120 minutes in a warm room. […] Longer contact times provide a greater amount of labeling but lower cell viability.
The labeled cells are washed with (i) complete medium, (ii) 1 mM EDTA/PBS and then (iii) RPM1/1 percent BSA free of serum components. The cells are centrifuged after each washing. The cells are finally resuspended in serum-free RPMI/1 percent BSA at a concentration of 1×10^6 viable cells/ml, which provides a concentration that is diluted by one-half in the assay.
Inhibitor compounds are prepared as stock solutions at 20 mg/ml in DMSO in 1.5 ml cryogenic screwcap vials, and were stored at -70° C. Using Flow™ round-bottom or V-bottom microtiter plates, the inhibitor compounds were prepared at twice the assay concentration in RPMI/1 percent BSA at 60 μl/well.
Four initial dilutions were typically used.
The ^51 Cr-labeled cells ([…] at 60 μl/well) were then admixed with the diluted compound solutions. The admixtures were maintained at room temperature (about 22° C.) for 30 minutes.
One hundred microliters of each inhibitor compound/cell admixture were transferred to the substrate-coated wells. This was done in triplicate for each dilution. The resulting plates were incubated for 30 minutes at 37° C. and then washed gently three times with RPMI/1 percent BSA at 200 μl/well. Binding was observed microscopically, particularly after the second wash.
The bound cells were then lysed by the addition of a 0.5 percent solution of sodium dodecylsulfate in water at 100 μl/well. The resulting solutions were then processed for counting and calculation of IC50 values following usual procedures.
The data of Table 1 are normalized to the binding of SEQ ID NO: 3. […] Multiple assays for the same compound were averaged.

`CC(C)[C@@H]1CC[C@@H](C)C[C@H]1OCC(=O)N[C@@H](CC(=O)O)C(=O)N[C@@H](Cc1ccccc1)C(=O)N1CCC[C@@H]1C(N)=O` [1056.06] was tested, and the “Relative Potency” value was 0.

Same assay, conditions: before the prodrug compound is enzymatically converted to an active form; relative to SEQ ID NO:3 = 1

In the case of `CC(C)C[C@H](NC(=O)Cc1ccccc1)C(=O)N[C@@H](CC(=O)OCC(=O)OCc1ccccc1)C(=O)N[C@@H](Cc1ccccc1)C(=O)N1CCC[C@@H]1C(N)=O` [1067.01] (PhAc-LD(X7)F[dP]-NH2), the “Relative Potency (prodrug compound)” value is reported as “.97”.
In the case of `CC(C)C[C@H](NC(=O)Cc1ccccc1)C(=O)N[C@@H](CC(=O)OCC(=O)O)C(=O)N[C@@H](Cc1ccccc1)C(=O)N1CCC[C@@H]1C(N)=O` [1067.02] (PhAc-LD(X6)F[dP]-NH2), the “Relative Potency (prodrug compound)” value is reported as “.81”.
With `CCCCCCCCCCCCCCCCCCNC(=O)CCCCCNC(=O)[C@@H]1CCCN1C(=O)[C@H](Cc1ccccc1)NC(=O)[C@H](CC(=O)O)NC(=O)[C@H](CC(C)C)NC(=O)Cc1ccccc1` [1068.01, phenylacetyl-Leu-Asp-Phe-Pro-NH(CH2)5 C (O)NHC18 H37] (PhAc-LDFP[Ahx]-NHOctadecyl) the “Relative Potency (prodrug compound)” value was “.91”.
`CCCCCCCCCC(=O)OC1CCN(C(=O)[C@H](Cc2ccccc2)NC(=O)[C@H](CC(=O)O)NC(=O)[C@H](CC(C)C)NC(=O)Cc2ccccc2)CC1` [1068.06] was tested, and the “Relative Potency (prodrug compound)” value was “.63”.

In order of falling “Relative Potency (prodrug compound)” value:
1. CCCCCCCCCCCCCCCCCC(=O)OC1CCN(C(=O)[C@H](Cc2ccccc2)NC(=O)[C@H](CC(=O)O)NC(=O)[C@H](CC(C)C)NC(=O)Cc2ccccc2)CC1 [1068.05]  0.63
2. CC(C)C[C@H](NC(=O)Cc1ccccc1)C(=O)N[C@@H](CC(=O)OCc1ccccc1)C(=O)N[C@@H](Cc1ccccc1)C(=O)N1CCC[C@@H]1C(N)=O [1068.07] (PhAc-LD(OBn)F[dP]-NH2)  0
3. CCCCCCCCCCOC(=O)C[C@H](NC(=O)[C@H](CC(C)C)NC(=O)Cc1ccccc1)C(=O)N[C@@H](Cc1ccccc1)C(=O)N1CCC[C@@H]1C(N)=O [1068.09] (PhAc-LD(ODecyl)F[dP]-NH2)  0
4. CCCCCCCCCCCCOC(=O)C[C@H](NC(=O)[C@H](CC(C)C)NC(=O)Cc1ccccc1)C(=O)N[C@@H](Cc1ccccc1)C(=O)N1CCC[C@@H]1C(N)=O [1068.10] (PhAc-LD(X5)F[dP]-NH2)  0
5. CCCCCCCCCCCCCCOC(=O)C[C@H](NC(=O)[C@H](CC(C)C)NC(=O)Cc1ccccc1)C(=O)N[C@@H](Cc1ccccc1)C(=O)N1CCC[C@@H]1C(N)=O [1068.11] (PhAc-LD(X1)F[dP]-NH2)  0
6. CCCCCCCCCCCCCCCCCCOC(=O)C[C@H](NC(=O)[C@H](CC(C)C)NC(=O)Cc1ccccc1)C(=O)N[C@@H](Cc1ccccc1)C(=O)N1CCC[C@@H]1C(N)=O [1068.12] (PhAc-LD(X8)F[dP]-NH2)  0
7. CCN(CC)C(=O)COC(=O)C[C@H](NC(=O)[C@H](CC(C)C)NC(=O)Cc1ccccc1)C(=O)N[C@@H](Cc1ccccc1)C(=O)N1CCC[C@@H]1C(N)=O [1068.13] (PhAc-LD(X4)F[dP]-NH2)  0
8. CCOC(=O)C[C@H](NC(=O)[C@H](CC(C)C)NC(=O)Cc1ccccc1)C(=O)N[C@@H](Cc1ccccc1)C(=O)N1CCC[C@@H]1C(N)=O [1190.01] (PhAc-LD(OEt)F[dP]-NH2)  0

Same assay, conditions: binding inhibition potency (IC50) relative to standard compound of SEQ ID NO:3 = 1; about one-tenth or less assigned zero

In order of falling “Relative Potency” value:
1. CC(C)C[C@H](NC(=O)Cc1ccccc1)C(=O)N[C@@H](CC(=O)O)C(=O)N[C@@H](Cc1ccccc1)C(=O)N1CCN(CCOCCO)CC1 [1111.07]  510
2. CC(C)C[C@H](NC(=O)Cc1ccccc1)C(=O)N[C@@H](CC(=O)O)C(=O)N[C@@H](Cc1ccccc1)C(=O)N1CCSCC1 [1111.02]  450
3. CC(C)C[C@H](NC(=O)Cc1ccccc1)C(=O)N[C@@H](CC(=O)O)C(=O)NC1CCCCN(CC(N)=O)C1=O (some centres unmarked) [1057.06]  97
4. CC(C)C[C@H](NC(=O)Cc1ccccc1)C(=O)N[C@@H](CC(=O)O)C(=O)N[C@@H](CCc1ccccc1)C(=O)N1CCC[C@@H]1C(N)=O [1062.03] (PhAc-LD[hPhe][dP]-NH2)  93.93
5. CC(C)C[C@H](NC(=O)Cc1ccccc1)C(=O)N[C@@H](CC(=O)O)C(=O)N[C@H](C(=O)N1CCC[C@@H]1C(N)=O)c1ccccc1 [896.69] (PhAc-LD[Phg][dP]-NH2)  61
6. CC(C)C[C@H](NC(=O)Cc1ccccc1)C(=O)N[C@@H](CC(=O)O)C(=O)N[C@@H](Cc1ccccc1)C(=O)NCCCO [1051.05]  25
7. CC(C)C[C@H](NC(=O)Cc1ccccc1)C(=O)N[C@@H](CC(=O)O)C(=O)NC1Cc2ccccc2N(CCN2CCOCC2)C1=O (some centres unmarked) [997.18]  20
8. CC(C)C[C@H](NC(=O)c1ccccc1)C(=O)N[C@@H](CC(=O)O)C(=O)N[C@H](C(=O)N1CCC[C@H]1C(N)=O)C(C)C [896.35]  16
9. NC(=O)[C@H]1CCCN1C(=O)[C@H](Cc1ccccc1)NC(=O)[C@H](CC(=O)O)NC(=O)[C@H](CC1CCCCC1)NC(=O)c1ccccc1 [896.31] (Bz-[Cha]DF[dP]-NH2)  11
10. CC(C)C[C@H](NC(=O)c1ccccc1)C(=O)N[C@@H](CC(=O)O)C(=O)N[C@H](C(=O)N1CCC[C@@H]1C(N)=O)C(C)C [926.02]  9.6
11. NC(=O)[C@H]1CCCN1C(=O)[C@H](Cc1ccccc1)NC(=O)[C@H](CC(=O)O)NC(=O)CCCCC1CCSS1 (some centres unmarked) [1056.09]  1.1
12. CC(C)C[C@H](NC(=O)Cc1ccccc1)C(=O)N[C@@H](CS)C(=O)N[C@@H](Cc1ccccc1)C(=O)N1CCC[C@@H]1C(N)=O [896.59] (PhAc-LCF[dP]-NH2)  0
13. O=C(O)C[C@H](NC1CCN(C(=O)Cc2ccccc2)CC1)C(=O)N[C@@H](Cc1ccccc1)C(=O)N1CCCC1 [992.01]  0
14. CC(C)C[C@H](NC(=O)Cc1ccccc1)C(=O)NC(CC(=O)O)(CC(=O)O)C(=O)N[C@@H](Cc1ccccc1)C(=O)N1CCCCC1 [1026.01]  0
15. CC(C)C[C@H](NC(=O)Cc1ccccc1)C(=O)NC(C(=O)O)C(=O)N[C@@H](Cc1ccccc1)C(=O)N1CCCCC1 (some centres unmarked) [1026.02]  0
16. CC(C)C[C@H](NC(=O)Cc1ccccc1)C(=O)N[C@@H](CS(=O)(=O)O)C(=O)N[C@@H](Cc1ccccc1)C(=O)N1CCCCC1 [1026.06] (PhAc-Leu-[Cya]-Phe-Piperidide)  0
17. CC(C)C[C@H](NC(=O)Cc1ccccc1)C(=O)N[C@@H](CP(=O)(O)O)C(=O)N[C@@H](Cc1ccccc1)C(=O)N1CCCCC1 [1026.07]  0
18. CC(C)C[C@H](NC(=O)Cc1ccccc1)C(=O)N[C@@H](CS(N)(=O)=O)C(=O)N[C@@H](Cc1ccccc1)C(=O)N1CCCCC1 [1026.08]  0
19. CC(C)C[C@@H](CN[C@@H](CC(=O)O)C(=O)N[C@@H](Cc1ccccc1)C(=O)N1CCCCC1)NC(=O)Cc1ccccc1 [1041.01]  0
20. CC(C)C[C@H](NC(=O)Cc1ccccc1)C(=O)N[C@@H](CC(=O)O)C(=O)N(C)[C@@H](Cc1ccccc1)C(=O)N1CCC[C@@H]1C(N)=O [1190.05] (PhAc-LD[NMeF][dP]-NH2)  0

In the case of `CC(C)C[C@H](NC(=O)Cc1ccccc1)C(=O)N[C@@H](CC(=O)O)C(=O)N[C@@H](Cc1ccccc1)C(N)=O` [997.12] (PhAc-Leu-Asp-Phe-NH2), the “Relative Potency” value is reported as “.45”.
With `CC(C)CN(CC(=O)Nc1ccccc1)C(=O)CN(CC(=O)O)C(=O)CN(Cc1ccccc1)C(=O)C1CCCC1` [1032.02] the “Relative Potency” value was “.63”.
`CC(C)C[C@H](NC(=O)Cc1ccccc1)C(=O)N[C@@H](CC(=O)O)C(=O)N1C(=O)N(Cc2ccccc2)C(=O)[C@H]1Cc1ccccc1` [1047.07] was tested, and the “Relative Potency” value was “.38”.
For `CC(C)C[C@H](NC(=O)Cc1ccccc1)C(=O)N[C@@H](CC(=O)O)C(=O)N1C(=O)N(Cc2ccccc2)C(=O)[C@@H]1Cc1ccccc1` [1047.08], the “Relative Potency” value was “.38”.
With `O=C(O)CC(C(=O)N[C@@H](Cc1ccccc1)C(=O)N1CCCCC1)N1CC[C@H](NC(=O)Cc2ccccc2)C1=O` (some centres unmarked) [1057.01] the “Relative Potency” value was “.88”.
